Converted amounts (≈) assume the structure as drawn. Like-named read-outs stand apart in the source and are kept apart here.
Assays:
[1] = test system: E. faecalis ATCC 29212 (Efs 12); experiment: MIC, broth microdilution, Efs 12; format: cell-based; settings: for MIC: Enterococcus faecalis, read-out: Minimum inhibitory concentration (MIC) Efs 12; for Minimum inhibitory concentration (MIC) Efs 12: Table 1, HT series
Protocol: (§1) The broth microdilution method was utilized to determine MIC values of novel thiazole derivatives against different clinically important Gram-positive bacteria according to the guidelines outlined by the Clinical and Laboratory Standards Institute (CLSI) as reported in our recent papers.^1-5 The starting concentration of compounds for MIC determination was 64 μg/mL serially diluted down the wells and the MIC values were recorded in duplicates in three independent experiments on different days.

[2] = test system: S. aureus ATCC 25923 (Sa 23); experiment: MIC, broth microdilution, Sa 23; format: cell-based; settings: for MIC: Staphylococcus aureus, read-out: Minimum inhibitory concentration (MIC) Sa 23; for Minimum inhibitory concentration (MIC) Sa 23: Table 1, HT series
Protocol: as §1

[3] = test system: S. aureus ATCC 700699 (Sa 99); experiment: MIC, broth microdilution, Sa 99; format: cell-based; settings: for MIC: Staphylococcus aureus, read-out: Minimum inhibitory concentration (MIC) Sa 99; for Minimum inhibitory concentration (MIC) Sa 99: Table 1, HT series
Protocol: as §1

[4] = test system: E. faecalis ATCC 51299 (Efs 99); experiment: MIC, broth microdilution, Efs 99; format: cell-based; settings: Enterococcus faecalis, ATCC51299; Table 2, HTM series; read-out: Minimum inhibitory concentration (MIC) Efs 99
Protocol: as §1

[5] = test system: S. aureus ATCC BAA-2312 (Sa 12); experiment: MIC, broth microdilution, Sa 12; format: cell-based; settings: Staphylococcus aureus, ATCCBAA2312; Table 2, HTM series; read-out: Minimum inhibitory concentration (MIC) Sa 12
Protocol: as §1

[6] = test system: S. aureus ATCC 33592 (Sa 92); experiment: MIC, broth microdilution, Sa 92; format: cell-based; settings: Staphylococcus aureus, ATCC33592; Table 2, HTM series; read-out: Minimum inhibitory concentration (MIC) Sa 92
Protocol: as §1

[7] = test system: S. aureus subsp. aureus Rosenbach ATCC 25904 (SA Newman); experiment: MIC, broth microdilution, SA Newman; format: cell-based; settings: Staphylococcus aureus; Table 2, HTM series; read-out: Minimum inhibitory concentration (MIC) Sa Newman
Protocol: as §1

[8] = test system: S. aureus subsp. aureus Rosenbach BAA-1717 (Sa USA 300); experiment: MIC, broth microdilution, Sa USA 300; format: cell-based; settings: Staphylococcus aureus; Table 2, HTM series; read-out: Minimum inhibitory concentration (MIC) Sa USA 300
Protocol: as §1

[9] = test system: S. epidermidis ATCC 700296 (Se); experiment: MIC, broth microdilution, Se; format: cell-based; settings: Staphylococcus epidermidis, ATCC700296; Table 2, HTM series; read-out: Minimum inhibitory concentration (MIC) Se
Protocol: as §1

[10] = test system: Sa UAMS-1 MRSA ATCC 49230 (Sa UAMS); experiment: MIC, broth microdilution, Sa UAMS; format: cell-based, S. aureus; settings: Staphylococcus aureus; Table 2, HTM series; read-out: Minimum inhibitory concentration (MIC) Sa UAMS-1
Protocol: as §1

[11] = test system: E. faecium ATCC 700221 (Efm 21); experiment: MIC, broth microdilution, Efm 21; format: cell-based; settings: Enterococcus faecium, ATCC700221, Table 2, HTM series; read-out: Minimum inhibitory concentration (MIC) Efm 21
Protocol: as §1

[12] = test system: S. aureus ATCC 33591 (Sa 91); experiment: MIC, broth microdilution, Sa 91; format: cell-based; settings: Staphylococcus aureus, ATCC33591; Table 2, HTM series; read-out: Minimum inhibitory concentration (MIC) Sa 91
Protocol: as §1

[13] = ATCC29212, Table 1, HT series, replicates from different days separated by comma
[14] = replicates from different days separated by comma
[15] = ATCC25923, Table 1, HT series, replicates from different days separated by comma
[16] = ATCC700699, Table 1, HT series, replicates from different days separated by comma
[17] = ATCC700699, Table 2, HTM series

Compound | MIC [1, 13] [µg/mL] | Minimum inhibitory concentration (MIC) Efs 12 [1, 14] | MIC [2, 15] [µg/mL] | Minimum inhibitory concentration (MIC) Sa 23 [2, 14] | MIC [3, 16] [µg/mL] | Minimum inhibitory concentration (MIC) Sa 99 [3, 14] | MIC [4] [µg/mL] | MIC [5] [µg/mL] | MIC [6] [µg/mL] | MIC ([1]; ATCC29212, Table 2, HTM series) [µg/mL] | MIC ([2]; ATCC25923, Table 2, HTM series) [µg/mL] | MIC [7] [µg/mL] | MIC [8] [µg/mL] | MIC [9] [µg/mL] | MIC [3, 17] [µg/mL] | MIC [10] [µg/mL] | MIC [11] [µg/mL] | MIC [12] [µg/mL]
Oc1ccc(-c2nc(-c3ccncc3)cs2)cc1O [Compound 11, 4-(4-(pyridin-4-yl)thiazol-2-yl)benzene-1,2-diol] | > 32 | >32, >32 μg/mL | > 32 | >32, >32 μg/mL | > 32 | >32, >32 μg/mL | – | – | – | – | – | – | – | – | – | – | – | –
O=c1oc2ccccc2cc1-c1csc(-c2ccc(O)c(O)c2)n1 [Compound 17, 3-(2-(3,4-dihydroxyphenyl)thiazol-4-yl)-2H-chromen-2-one] | > 32 | >32, >32 μg/mL | > 32 | >32, >32 μg/mL | 16 (≈ 47.4 µM) | 32 µg/mL (≈ 94.9 µM) | – | – | – | – | – | – | – | – | – | – | – | –
Oc1ccc(-c2csc(Nc3ccc(Cl)c(Cl)c3)n2)cc1 [Compound 75, 4-(2-((3,4-dichlorophenyl)amino)thiazol-4-yl)phenol] | – | – | – | – | – | – | 4 (≈ 11.9 µM) | 2 (≈ 5.93 µM) | 2 (≈ 5.93 µM) | 4 (≈ 11.9 µM) | 2 (≈ 5.93 µM) | 4 (≈ 11.9 µM) | 2 (≈ 5.93 µM) | 2 (≈ 5.93 µM) | 2 (≈ 5.93 µM) | 2 (≈ 5.93 µM) | 4 (≈ 11.9 µM) | 2 (≈ 5.93 µM)
Oc1ccc(-c2csc(-c3ccc(Cl)c(Cl)c3)n2)cc1 [Compound 65, 4-(2-(3,4-dichlorophenyl)thiazol-4-yl)phenol] | – | – | – | – | – | – | 2 (≈ 6.21 µM) | 1 (≈ 3.1 µM) | 1 (≈ 3.1 µM) | 2 (≈ 6.21 µM) | 1 (≈ 3.1 µM) | 2 (≈ 6.21 µM) | 1 (≈ 3.1 µM) | 1 (≈ 3.1 µM) | 1 (≈ 3.1 µM) | 2 (≈ 6.21 µM) | 2 (≈ 6.21 µM) | 1 (≈ 3.1 µM)
Oc1ccc(-c2csc(Nc3ccc(Cl)c(Cl)c3)n2)cc1O [Compound 74, 4-(2-((3,4-dichlorophenyl)amino)thiazol-4-yl)benzene-1,2-diol] | – | – | – | – | – | – | 8 (≈ 22.6 µM) | 4 (≈ 11.3 µM) | 4 (≈ 11.3 µM) | 8 (≈ 22.6 µM) | 4 (≈ 11.3 µM) | 8 (≈ 22.6 µM) | 8 (≈ 22.6 µM) | 4 (≈ 11.3 µM) | 4 (≈ 11.3 µM) | 8 (≈ 22.6 µM) | 4 (≈ 11.3 µM) | 8 (≈ 22.6 µM)
Oc1ccc(-c2csc(-c3cc(Cl)cc(Cl)c3)n2)cc1 [Compound 43, 4-(2-(3,5-dichlorophenyl)thiazol-4-yl)phenol] | – | – | – | – | – | – | 2 (≈ 6.21 µM) | 1 (≈ 3.1 µM) | 1 (≈ 3.1 µM) | 2 (≈ 6.21 µM) | 1 (≈ 3.1 µM) | 1 (≈ 3.1 µM) | 1 (≈ 3.1 µM) | 1 (≈ 3.1 µM) | 1 (≈ 3.1 µM) | 1 (≈ 3.1 µM) | 2 (≈ 6.21 µM) | 1 (≈ 3.1 µM)

Other lines, results leading:

MIC [1, 13] [µg/mL] | Minimum inhibitory concentration (MIC) Efs 12 [1, 14] | MIC [2, 15] [µg/mL] | Minimum inhibitory concentration (MIC) Sa 23 [2, 14] | MIC [3, 16] [µg/mL] | Minimum inhibitory concentration (MIC) Sa 99 [3, 14] | MIC [4] [µg/mL] | MIC [5] [µg/mL] | MIC [6] [µg/mL] | MIC ([1]; ATCC29212, Table 2, HTM series) [µg/mL] | MIC ([2]; ATCC25923, Table 2, HTM series) [µg/mL] | MIC [7] [µg/mL] | MIC [8] [µg/mL] | MIC [9] [µg/mL] | MIC [3, 17] [µg/mL] | MIC [10] [µg/mL] | MIC [11] [µg/mL] | MIC [12] [µg/mL] | Compound
> 32 | >32, >32 μg/mL | > 32 | >32, >32 μg/mL | > 32 | >32, >32 μg/mL | – | – | – | – | – | – | – | – | – | – | – | – | N#Cc1ccc(-c2csc(-c3ccc(O)c(O)c3)n2)cc1 [Compound 12, 4-(2-(3,4-dihydroxyphenyl)thiazol-4-yl)benzonitrile]
> 32 | >32, >32 μg/mL | 16 (≈ 53.4 µM) | 16, 16 μg/mL | 32 (≈ 107 µM) | 32, 32 μg/mL | – | – | – | – | – | – | – | – | – | – | – | – | COc1ccc(-c2csc(-c3ccc(O)c(O)c3)n2)cc1 [Compound 7, 4-(4-(4-methoxyphenyl)thiazol-2-yl)benzene-1,2-diol]
> 32 | >32, >32 μg/mL | > 32 | >32, >32 μg/mL | > 32 | >32, >32 μg/mL | – | – | – | – | – | – | – | – | – | – | – | – | NC(=O)c1cc(-c2csc(-c3ccc(O)c(O)c3)n2)ccc1O [Compound 16, 5-(2-(3,4-dihydroxyphenyl)thiazol-4-yl)-2-hydroxybenzamide]

— patent US20250270199A1, “THIAZOLE DERIVATIVES AND METHODS OF USING THE SAME” (Arkansas State University - Jonesboro, priority 2022, published 2025)
